Experiments:
H. contortus = settings: background statement; cited from earlier work
A. caninum = settings: in vivo; cited from earlier work
[1] = tested on: Strongyloides stercoralis infective larvae; experiment: In vitro bioassay of infective larvae, immobilization and lethal doses (eosin, Probit); format: cell-based; settings: S. stercoralis infective larvae, 48 hr in vitro; for 48 hr ID50 ± 95% confidence intervals: immobilize 50%; for 48 hr ID90 ± 95% confidence intervals: immobilize 90%; for 48 hr LD50 ± 95% confidence intervals: kill 50%; for 48 hr LD90 ± 95% confidence intervals: kill 90%
Protocol: (§1) Strongyloides stercoralis infective larvae were harvested from charcoal coprocultures in nematode saline solution. The larvae were supplied by the Parasitology Laboratory, Department of Pathobiology, University of Pennsylvania. The strain of larvae was a human strain of the parasitic nematode that had been maintained for over ten years in canines by daily prednisolone treatment (2 mg/kg per os, once daily. Parastrongyloides trichosuri and Ancylostoma caninum infective larvae were also supplied by the same source as for S. stercoralis. Haemonchus contortus infective larvae were harvested from charcoal coprocultures in nematode saline solution prepared from infected sheep feces obtained from Merck Parasites Laboratory.
(§2) The 24 hr 50% and 90% immobilization doses (ID50 and ID90), and 50% and 90% lethal doses (LD50 and LD90) of eryngial (mg/ml) were investigated in vitro using infective larvae of all four parasitic nematodes. Each species was exposed to a range of eryngial dilutions by adding known volumes of a homogeneous ‘wormy’ solution (infective larvae in nematode saline solution) to known volumes of an eryngial stock suspension (10 mg/ml of nematode saline solution). Each dilution, including the control (0 mg/ml eryngial), was prepared in triplicate and also contained eosin (0.01%, w/v), which was used as an indicator of mortality, and Triton X-100 (1.0%, v/v).
(§3) Using S. stercoralis, P. trichosuri, H. contortus and A. caninum infective larvae, eryngial dilutions, excluding the controls, ranged from 0.05 to 1.15 mg/ml; 0.01 to 1.0 mg/ml; 0.5 to 2.0 mg/ml; and 0.8 to 3.0 mg/ml, respectively. Sub-sample (10 μl) counts of larvae that were mobile, immobile but not stained and stained, were done at the start of each bioassay and at 24 hr intervals for two days. Each sub-sample contained approximately 50 infective larvae.
(§4) The 48-hr immobilization doses (ID50 and ID90) and lethal doses (LD50 and LD90) of eryngial and ivermectin also were investigated, using S. stercoralis and H. contortus infective larvae. Each bioassay was conducted as described hereinabove. Using S. stercoralis and H. contortus infective larvae, ivermectin dilutions (not including the controls) ranged from 0.03 to 0.3 mg/ml and from 0.009 to 0.1 mg/ml, respectively.
(§5) Probit analysis was used to determine 24 hr and 48 hr immobilization and lethal doses for eryngial and ivermectin, respectively.

[2] = tested on: Haemonchus contortus infective larvae; experiment: as above; format: cell-based; settings: H. contortus infective larvae; for 48 hr ID50 ± 95% confidence intervals: immobilize 50%; for 48 hr ID50 ± 95% confidence intervals / 48 hr ID90 ± 95% confidence intervals / 48 hr LD50 ± 95% confidence intervals / 48 hr LD90 ± 95% confidence intervals: 48 hr in vitro; for 48 hr ID90 ± 95% confidence intervals: immobilize 90%; for 48 hr LD50 ± 95% confidence intervals: kill 50%; for 48 hr LD90 ± 95% confidence intervals: kill 90%
Protocol: as §1, §2, §3, §4, §5

[3] = tested on: A. canimun life-cycle stages; settings: in vitro, Wang et al. (1989), cited from earlier work
P. trichosuri = settings: doramectin 0.6 mg/kg, in vivo, p<0.05, Ralston et al. (2001); cited from earlier work

For `CCCSc1ccc2nc(NC(=O)OC)[nH]c2c1` [Albendazole, albendazole], the “efficacy rates against H. contortus infections” value (H. contortus) is given as 100%.

For ivermectin [reference compound], the “effectiveness in infected dogs” value (A. caninum) is given as “clearing the infection completely”, the “48 hr ID50 ± 95% confidence intervals” value [1] is given as 0.136 (0.114-0.157) mg/ml and the “48 hr ID50 ± 95% confidence intervals” value ([1]; listed as ivermectin) is given as 0.136 mg/mL. For the same compound, the “48 hr ID90 ± 95% confidence intervals” value [1] was 0.297 (0.251-0.377) mg/ml, the “48 hr ID90 ± 95% confidence intervals” value ([1]; listed as ivermectin) was 0.297 mg/mL and the “48 hr LD50 ± 95% confidence intervals” value [1] was 0.306 (0.203-0.442) mg/ml. For the same compound, the “48 hr LD50 ± 95% confidence intervals” value ([1]; listed as ivermectin) was 0.306 mg/mL, the “48 hr LD90 ± 95% confidence intervals” value [1] was 1.038 (0.665-2.498) mg/ml and the “48 hr LD90 ± 95% confidence intervals” value ([1]; listed as ivermectin) was 1.038 mg/mL. For the same compound, the “48 hr ID50 ± 95% confidence intervals” value [2] was 0.011 (0.001-0.022) mg/ml, the “48 hr ID50 ± 95% confidence intervals” value ([2]; listed as ivermectin) was 0.011 mg/mL and the “48 hr ID90 ± 95% confidence intervals” value [2] was 0.059 (0.043-0.092) mg/ml. The “48 hr ID90 ± 95% confidence intervals” value ([2]; listed as ivermectin) was 0.059 mg/mL, the “times greater in potency than eryngial (48 hr ID90)” value ([2]; ivermectin vs eryngial) was 12.9 times and the “times more effective than eryngial at immobilizing (48 hr ID50)” value ([2]; ivermectin vs eryngial) was 28.5 times. For the same compound, the “48 hr LD50 ± 95% confidence intervals” value [2] was 4.990 (4.572-5.954) mg/ml, the “48 hr LD50 ± 95% confidence intervals” value ([2]; listed as ivermectin) was 4.990 mg/mL and the “48 hr LD90 ± 95% confidence intervals” value [2] was 6.949 (5.858-10.10) mg/ml. The “48 hr LD90 ± 95% confidence intervals” value ([2]; listed as ivermectin) was 6.949 mg/mL, the “dose that killed L3 larvae” value ([3]; A. caninum L3 larvae) was 2.5 mg/mL and the “dose that killed adult worms” value ([3]; A. caninum adult worms) was 560 mg/mL. The “dose detrimental to eggs inside the uterine tissue of female worms” value ([3]; A. caninum eggs) was 1000 mg/mL.

For `CO[C@H]1C[C@H](O[C@H]2[C@H](C)O[C@@H](O[C@@H]3/C(C)=C/C[C@@H]4C[C@@H](C[C@]5(C=C[C@H](C)[C@@H](C6CCCCC6)O5)O4)OC(=O)[C@@H]4C=C(C)[C@@H](O)[C@H]5OC/C(=C\C=C\[C@@H]3C)[C@]54O)C[C@@H]2OC)O[C@@H](C)[C@@H]1O` [doramectin], the “reduction of P. trichosuri infection in possums” value (P. trichosuri) is given as 99%.

In the case of `c1ccc(C2CN3CCSC3=N2)cc1` (stereo not shown) [tetramisole], the “efficacy rates against H. contortus infections” value (H. contortus) is given as 100%.

From patent publication US9545386B2, “Methods of treating infectious diseases” (SLIPPERY ROCK UNIVERSITY FOUNDATION, INC., priority 2007, dated 2017)
